Measurements from ChEMBL document CHEMBL4765450, “The components and activities analysis of a novel anticoagulant candidate dHG-5” (Eur J Med Chem, 2020).
The source made the active and inactive calls. No cut-off for these calls is given here.

Tests used:
Plasma [1] = assay: (§1) Anticoagulation activity in human plasma assessed as drug level causing 20 times doubling of APTT preincubated for 2 mins followed by APTT reagent and measured after 3 mins by coagulometric method relative to dHG-5; type: functional; settings: time 5 min
[2] = target: Coagulation factor XI (Homo sapiens) (UniProt P03951); assay: Inhibition of factor 11a (unknown origin) at IC50 using S-2366 as substrate preincubated for 1 min followed by chromogenic substrate addition and measured for 2 mins; settings: time 3.0 min
[3] = target: Coagulation factor X (Homo sapiens) (UniProt P00742); assay: Inhibition of factor 10a (unknown origin) at IC90 preincubated for 1 min followed by chromogenic substrate addition and measured for 2 mins in presence of AT-III relative to control; settings: time 3.0 min
[4] = target: T1, Coagulation factor XII (Homo sapiens) (UniProt P00748); assay: Inhibition of factor 12a (unknown origin) at IC50 using kallikrein chromogenic substrate preincubated for 1 min followed by chromogenic substrate addition and measured for 2 mins in presence of AT-III; settings: time 3.0 min
T1 sequence (whole entry): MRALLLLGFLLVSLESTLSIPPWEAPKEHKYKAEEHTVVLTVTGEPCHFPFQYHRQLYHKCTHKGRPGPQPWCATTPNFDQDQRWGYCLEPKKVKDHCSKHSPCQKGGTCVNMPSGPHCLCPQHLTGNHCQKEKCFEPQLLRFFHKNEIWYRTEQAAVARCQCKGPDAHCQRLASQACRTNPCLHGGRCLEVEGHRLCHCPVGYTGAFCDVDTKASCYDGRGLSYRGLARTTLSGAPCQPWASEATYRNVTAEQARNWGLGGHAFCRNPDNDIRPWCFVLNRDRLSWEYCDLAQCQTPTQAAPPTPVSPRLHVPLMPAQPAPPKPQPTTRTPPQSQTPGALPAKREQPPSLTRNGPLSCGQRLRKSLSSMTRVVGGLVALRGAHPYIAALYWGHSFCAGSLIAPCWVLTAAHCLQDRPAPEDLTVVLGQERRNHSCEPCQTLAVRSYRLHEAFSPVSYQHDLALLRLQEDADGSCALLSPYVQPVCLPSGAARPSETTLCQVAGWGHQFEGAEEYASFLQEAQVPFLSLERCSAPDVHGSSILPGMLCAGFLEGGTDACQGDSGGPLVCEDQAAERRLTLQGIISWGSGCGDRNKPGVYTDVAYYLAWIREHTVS

[5] = target: Coagulation factor IX/VIII (Homo sapiens, UniProt P00451+P00740); assay: (§2) Inhibition of human citrated plasma iXase (factor 8a-factor 9a complex) preincubated for 2 mins followed by factor 10 addition and measured after 1 min by FXa chromogenic substrate SXa-11 based assay; type: protein-complex assay
Plasma [6] = assay: as §1, with “of APTT by measuring activity potency of oligosaccharides multiplied by the percentage of oligosaccharides in dHG-5 preincubated for” for “of APTT preincubated for”; type: functional; settings: time 5 min
[7] = target: Prothrombin (Homo sapiens) (UniProt P00734); assay: Inhibition of factor 2a (unknown origin) at IC90 preincubated for 1 min followed by chromogenic substrate addition and measured for 2 mins in presence of AT-III; settings: time 3.0 min
[8] = target: T2, Coagulation factor VII (Homo sapiens) (UniProt P08709); assay: Inhibition of factor 7a (unknown origin) at IC50 using pefachrome factor VIIa as substrate preincubated for 1 min followed by chromogenic substrate addition and measured for 2 mins; settings: time 3.0 min
T2 sequence (whole entry): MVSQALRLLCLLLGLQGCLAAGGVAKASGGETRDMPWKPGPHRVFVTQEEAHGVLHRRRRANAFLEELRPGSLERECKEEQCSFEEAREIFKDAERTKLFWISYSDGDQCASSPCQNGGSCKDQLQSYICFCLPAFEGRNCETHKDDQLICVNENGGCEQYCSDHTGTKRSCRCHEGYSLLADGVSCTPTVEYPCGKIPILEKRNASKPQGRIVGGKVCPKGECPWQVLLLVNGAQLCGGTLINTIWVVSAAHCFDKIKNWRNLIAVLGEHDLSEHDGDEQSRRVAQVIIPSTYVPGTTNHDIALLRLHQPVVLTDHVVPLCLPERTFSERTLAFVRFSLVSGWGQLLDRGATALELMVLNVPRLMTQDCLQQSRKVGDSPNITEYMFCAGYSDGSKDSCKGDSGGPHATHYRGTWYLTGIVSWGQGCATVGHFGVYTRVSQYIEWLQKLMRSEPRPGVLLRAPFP

Coagulation factor IX [9] = target: T3, Coagulation factor IX (Homo sapiens, UniProt P00740); assay: Inhibition of factor 9a (unknown origin) binding to immobilized biotinylated oHG-11 by biolayer interferometry
[10] = target: Prothrombin (Homo sapiens) (UniProt P00734); assay: Inhibition of factor 2a (unknown origin) at IC50 preincubated for 1 min followed by chromogenic substrate addition and measured for 2 mins; settings: time 3.0 min
Plasma [11] = assay: Anticoagulation activity in AT-III-deficient human plasma preincubated for 2 mins followed by APTT reagent and measured after 3 mins by coagulometric method; type: functional, cell-free; settings: time 5.0 min
[12] = target: T1, Coagulation factor XII (Homo sapiens); assay: Inhibition of factor 12a (unknown origin) at IC50 using kallikrein chromogenic substrate preincubated for 1 min followed by chromogenic substrate addition and measured for 2 mins; settings: time 3.0 min
Rattus norvegicus [13] = assay: (§3) Antithrombotic activity in thromboplastin and stasis-induced Sprague-Dawley rat deep venous thrombosis model assessed as reduction in venous thrombosis at 2.36 mg/kg, sc administered 1 hr prior to thromboplastin addition for 20 secs followed by establishment of stasis for 20 mins; type: functional; design: scale not given: the % may be the effect or the level left; settings: time 80.33 min, 1.339 h
[14] = target: T4, Coagulation factor IX/VIII (Homo sapiens) (UniProt P00740+P00451); assay: as §2, with “complex) assessed as activity potency of oligosaccharides multiplied by the percentage of oligosaccharides in dHG-5” for “complex)”, “assay relative to dHG-5” for “assay”; type: protein-complex assay; settings: time 3.0 min
[15] = target: Prothrombin (Homo sapiens) (UniProt P00734); assay: Inhibition of factor 2a (unknown origin) at IC50 preincubated for 1 min followed by chromogenic substrate addition and measured for 2 mins in presence of AT-III; settings: time 3.0 min
Coagulation factor IX [16] = target: T3, Coagulation factor IX; assay: Inhibition of factor 9a (unknown origin) binding to immobilized biotinylated oHG-11 by biolayer interferometry relative to dHG-5
Rattus norvegicus [17] = assay: as §3, with “venous thrombosis by measuring activity potency of oligosaccharides multiplied by the percentage of oligosaccharides in dHG-5 at 2.36” for “venous thrombosis at 2.36”, “20 mins relative to dHG-5” for “20 mins”; type: functional; settings: time 80.33 min, 1.339 h
[18] = target: T2, Coagulation factor VII (Homo sapiens); assay: Inhibition of factor 7a (unknown origin) at IC50 using pefachrome factor VIIa as substrate preincubated for 1 min followed by chromogenic substrate addition and measured for 2 mins in presence of AT-III; settings: time 3.0 min
[19] = target: Coagulation factor XI (Homo sapiens) (UniProt P03951); assay: Inhibition of factor 11a (unknown origin) at IC90 using S-2366 as substrate preincubated for 1 min followed by chromogenic substrate addition and measured for 2 mins in presence of AT-III; settings: time 3.0 min
Rattus norvegicus [20] = assay: Antithrombotic activity in thromboplastin and stasis-induced Sprague-Dawley rat deep venous thrombosis model assessed as reduction in venous thrombosis at 2.36 mg/kg, sc administered 1 hr prior to thromboplastin addition for 20 secs followed by establishment of stasis for 20 mins relative to dHG-5; type: functional; settings: time 80.33 min, 1.339 h
Coagulation factor IX [21] = target: T3, Coagulation factor IX; assay: Inhibition of factor 9a (unknown origin) binding to immobilized biotinylated oHG-11 assessed as activity potency of oligosaccharides multiplied by the percentage of oligosaccharides in dHG-5 by biolayer interferometry relative to dHG-5
[22] = target: Coagulation factor XI (Homo sapiens) (UniProt P03951); assay: Inhibition of factor 11a (unknown origin) at IC50 using S-2366 as substrate preincubated for 1 min followed by chromogenic substrate addition and measured for 2 mins in presence of AT-III; settings: time 3.0 min
[23] = target: T4, Coagulation factor IX/VIII (Homo sapiens); assay: Inhibition of human citrated plasma iXase (factor 8a-factor 9a complex) preincubated for 2 mins followed by factor 10 addition and measured after 1 min by FXa chromogenic substrate SXa-11 based assay relative to dHG-5; type: protein-complex assay; settings: time 3.0 min
[24] = target: Coagulation factor X (Homo sapiens) (UniProt P00742); assay: Inhibition of factor 10a (unknown origin) at IC50 preincubated for 1 min followed by chromogenic substrate addition and measured for 2 mins in presence of AT-III; settings: time 3.0 min
[25] = target: Coagulation factor X (Homo sapiens) (UniProt P00742); assay: Inhibition of factor 10a (unknown origin) at IC50 preincubated for 1 min followed by chromogenic substrate addition and measured for 2 mins; settings: time 3.0 min
Plasma [26] = assay: Anticoagulation activity in HCII-deficient human plasma preincubated for 2 mins followed by APTT reagent and measured after 3 mins by coagulometric method; type: functional, cell-free; settings: time 5.0 min

Chain of Coagulation factor X (Homo sapiens) (P00742 41-179 limits assumed): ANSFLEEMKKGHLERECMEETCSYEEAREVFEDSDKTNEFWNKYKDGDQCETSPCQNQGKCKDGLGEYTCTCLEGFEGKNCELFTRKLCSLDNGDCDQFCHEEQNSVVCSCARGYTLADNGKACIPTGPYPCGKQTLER
Chain of Coagulation factor X (Homo sapiens) (P00742 235-488 limits assumed): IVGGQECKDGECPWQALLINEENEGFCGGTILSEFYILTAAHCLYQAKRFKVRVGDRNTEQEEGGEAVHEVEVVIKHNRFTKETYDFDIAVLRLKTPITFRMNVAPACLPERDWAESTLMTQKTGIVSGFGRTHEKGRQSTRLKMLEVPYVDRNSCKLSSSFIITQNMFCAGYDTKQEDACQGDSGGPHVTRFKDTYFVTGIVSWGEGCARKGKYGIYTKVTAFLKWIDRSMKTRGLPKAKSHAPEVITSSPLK
Chain of Coagulation factor XI (Homo sapiens) (P03951 19-387 limits assumed): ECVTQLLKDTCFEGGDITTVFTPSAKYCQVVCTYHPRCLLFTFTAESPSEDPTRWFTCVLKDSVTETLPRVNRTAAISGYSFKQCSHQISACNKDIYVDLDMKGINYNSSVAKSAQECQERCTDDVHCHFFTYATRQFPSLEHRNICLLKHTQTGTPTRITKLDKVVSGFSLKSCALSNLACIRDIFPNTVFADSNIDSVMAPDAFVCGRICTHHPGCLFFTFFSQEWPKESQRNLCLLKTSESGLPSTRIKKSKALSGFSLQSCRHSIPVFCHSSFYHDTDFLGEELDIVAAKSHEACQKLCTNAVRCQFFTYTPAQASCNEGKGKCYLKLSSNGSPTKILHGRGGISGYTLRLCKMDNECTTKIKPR
Chain of Coagulation factor XI (Homo sapiens) (P03951 388-625 limits assumed): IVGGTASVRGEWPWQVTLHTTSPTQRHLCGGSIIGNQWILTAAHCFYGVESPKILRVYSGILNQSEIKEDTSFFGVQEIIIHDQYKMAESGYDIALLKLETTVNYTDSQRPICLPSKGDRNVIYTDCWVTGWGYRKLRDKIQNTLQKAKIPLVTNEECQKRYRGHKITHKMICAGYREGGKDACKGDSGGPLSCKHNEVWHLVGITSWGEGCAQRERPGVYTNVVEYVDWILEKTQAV
T3 sequence (P00740 47-191 limits assumed): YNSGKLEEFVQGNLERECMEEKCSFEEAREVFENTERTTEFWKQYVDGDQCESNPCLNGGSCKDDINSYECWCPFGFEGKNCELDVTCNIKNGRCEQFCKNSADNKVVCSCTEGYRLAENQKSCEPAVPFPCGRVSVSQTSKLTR
T3 sequence (P00740 227-461 limits assumed): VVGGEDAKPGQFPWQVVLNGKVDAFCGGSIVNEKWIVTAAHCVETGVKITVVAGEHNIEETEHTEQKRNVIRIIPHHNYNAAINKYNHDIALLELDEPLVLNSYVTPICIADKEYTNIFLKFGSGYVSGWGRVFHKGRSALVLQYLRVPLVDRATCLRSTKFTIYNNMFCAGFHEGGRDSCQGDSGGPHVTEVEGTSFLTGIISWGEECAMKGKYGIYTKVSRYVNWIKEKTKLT
Chain of Coagulation factor IX/VIII (P00451 20-759 limits assumed): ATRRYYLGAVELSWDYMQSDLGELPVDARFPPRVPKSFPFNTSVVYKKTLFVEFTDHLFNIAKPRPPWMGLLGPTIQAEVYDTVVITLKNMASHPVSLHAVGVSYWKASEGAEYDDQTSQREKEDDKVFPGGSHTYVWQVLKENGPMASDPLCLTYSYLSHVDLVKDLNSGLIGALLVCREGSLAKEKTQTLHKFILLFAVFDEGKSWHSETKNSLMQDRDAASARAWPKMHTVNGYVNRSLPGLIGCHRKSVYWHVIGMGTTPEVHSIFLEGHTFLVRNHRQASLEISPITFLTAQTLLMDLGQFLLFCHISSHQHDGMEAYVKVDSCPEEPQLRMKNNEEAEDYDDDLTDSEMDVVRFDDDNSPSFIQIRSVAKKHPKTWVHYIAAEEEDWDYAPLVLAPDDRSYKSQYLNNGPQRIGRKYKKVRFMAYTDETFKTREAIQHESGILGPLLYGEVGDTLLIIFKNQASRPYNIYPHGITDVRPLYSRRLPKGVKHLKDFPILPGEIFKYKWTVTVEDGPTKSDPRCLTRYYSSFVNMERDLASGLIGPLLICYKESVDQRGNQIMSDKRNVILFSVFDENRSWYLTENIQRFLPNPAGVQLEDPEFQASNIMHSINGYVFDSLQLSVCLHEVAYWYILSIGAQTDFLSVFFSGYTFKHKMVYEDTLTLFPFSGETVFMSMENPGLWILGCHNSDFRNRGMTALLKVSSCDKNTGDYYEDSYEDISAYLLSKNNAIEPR
Chain of Coagulation factor IX/VIII (P00451 1668-2351 limits assumed): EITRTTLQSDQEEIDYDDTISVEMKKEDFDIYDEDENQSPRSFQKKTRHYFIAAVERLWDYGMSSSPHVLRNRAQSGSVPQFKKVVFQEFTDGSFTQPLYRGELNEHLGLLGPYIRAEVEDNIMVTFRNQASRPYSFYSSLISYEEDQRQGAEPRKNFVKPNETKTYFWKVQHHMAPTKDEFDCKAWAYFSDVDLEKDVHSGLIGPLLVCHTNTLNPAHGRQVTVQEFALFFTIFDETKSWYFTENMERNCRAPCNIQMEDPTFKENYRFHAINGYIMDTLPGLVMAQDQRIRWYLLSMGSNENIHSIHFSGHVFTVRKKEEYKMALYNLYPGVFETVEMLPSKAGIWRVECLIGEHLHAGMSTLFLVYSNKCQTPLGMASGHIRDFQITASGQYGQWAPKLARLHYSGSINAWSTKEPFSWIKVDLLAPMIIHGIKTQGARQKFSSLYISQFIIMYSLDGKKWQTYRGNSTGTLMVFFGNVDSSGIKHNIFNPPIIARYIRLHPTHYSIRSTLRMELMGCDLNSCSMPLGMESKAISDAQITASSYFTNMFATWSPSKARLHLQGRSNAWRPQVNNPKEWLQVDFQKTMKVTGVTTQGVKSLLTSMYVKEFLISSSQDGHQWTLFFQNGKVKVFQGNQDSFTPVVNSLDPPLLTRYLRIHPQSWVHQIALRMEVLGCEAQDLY
Chain of Coagulation factor IX/VIII (P00740 47-191 limits assumed): as the sequence (P00740 47-191 limits assumed) above
Chain of Coagulation factor IX/VIII (P00740 227-461 limits assumed): as the sequence (P00740 227-461 limits assumed) above

Structure (SMILES): CC(=O)N[C@H]1[C@H](O[C@@H]([C@H](O[C@@H]2O[C@@H](C)[C@@H](OS(=O)(=O)[O-])[C@@H](OS(=O)(=O)O)[C@@H]2O)[C@@H](O)CO)[C@H](O)C(=O)[O-])O[C@H](COS(=O)(=O)[O-])[C@H](OS(=O)(=O)[O-])[C@@H]1O[C@@H]1O[C@H](C(=O)[O-])[C@@H](O[C@@H]2O[C@H](COS(=O)(=O)[O-])[C@H](OS(=O)(=O)[O-])[C@H](O[C@@H]3O[C@H](C(=O)[O-])[C@@H](O[C@@H]4O[C@H](COS(=O)(=O)[O-])[C@H](OS(=O)(=O)[O-])[C@H](O[C@@H]5O[C@H](C(=O)[O-])[C@@H](O[C@@H]6O[C@H](COS(=O)(=O)[O-])[C@H](OS(=O)(=O)[O-])[C@H](O[C@@H]7O[C@H](C(=O)[O-])[C@@H](O[C@@H]8O[C@H](COS(=O)(=O)[O-])[C@H](OS(=O)(=O)[O-])[C@H](O[C@@H]9OC(C(=O)[O-])=C[C@H](O[C@@H]%10O[C@@H](C)[C@@H](OS(=O)(=O)[O-])[C@@H](OS(=O)(=O)O)[C@@H]%10O)[C@H]9O)[C@H]8NC(C)=O)[C@H](O[C@@H]8O[C@@H](C)[C@@H](OS(=O)(=O)[O-])[C@@H](OS(=O)(=O)O)[C@@H]8O)[C@H]7O)[C@H]6NC(C)=O)[C@H](O[C@@H]6O[C@@H](C)[C@@H](OS(=O)(=O)[O-])[C@@H](OS(=O)(=O)O)[C@@H]6O)[C@H]5O)[C@H]4NC(C)=O)[C@H](O[C@@H]4O[C@@H](C)[C@@H](OS(=O)(=O)[O-])[C@@H](OS(=O)(=O)O)[C@@H]4O)[C@H]3O)[C@H]2NC(C)=O)[C@H](O[C@@H]2O[C@@H](C)[C@@H](OS(=O)(=O)[O-])[C@@H](OS(=O)(=O)O)[C@@H]2O)[C@H]1O.[Na+].[Na+].[Na+].[Na+].[Na+].[Na+].[Na+].[Na+].[Na+].[Na+].[Na+].[Na+].[Na+].[Na+].[Na+].[Na+].[Na+].[Na+].[Na+].[Na+].[Na+].[Na+]
- Ratio (Plasma [1]): 104.07 U
- inhibition [2]: inactive
- inhibition [3]: inactive
- inhibition [4]: inactive
- IC50 [5]: 17.2 nM
- Ratio (Plasma [6]): 14.17 U
- inhibition [7]: Active
- inhibition (active/not active) [8]: inactive
- IC50 (Coagulation factor IX [9]): 416 nM
- inhibition [10]: inactive
- Activity (Plasma [11]): Active
- inhibition [12]: inactive
- Activity (Rattus norvegicus [13]): 58.4%
- Ratio [14]: 11.1 U
- inhibition [15]: inactive
- Ratio (Coagulation factor IX [16]): 103 U
- Ratio (Rattus norvegicus [17]): 16.73 U
- inhibition [18]: inactive
- inhibition [19]: Active
- Ratio (Rattus norvegicus [20]): 123.01 U
- Ratio (Coagulation factor IX [21]): 14.1 U
- inhibition [22]: inactive
- Ratio [23]: 81.6 U
- inhibition [24]: inactive
- inhibition [25]: inactive
- Activity (Plasma [26]): Active
